According to patent US10478485B2, “Methods and compositions to prevent or treat bacterial infections” (priority 2015, dated 2019):
≈ marks a conversion by molar mass, not a printed value.

Columns and labels:
[1] = test system: multi-drug resistant (MDR) Acinetobacter baumannii clinical isolates; assay: Minimum inhibitory concentration (MIC) determination; type: cell-based
Procedure: PX-12 concentrations used in these experiments approximated the concentration reported “well tolerated” by mice (˜500 μg/mouse; 500 μg/mL for this experiment). […] Furthermore, this concentration was also bactericidal leading us to believe it may potentially be useful as a new antimicrobial compound for treating MDR Acinetobacter baumannii. (Bacterial concentrations used in presented studies ˜100× higher than recommended by CLSI standards)

Acinetobacter baumannii = assay: SIgA breakdown / secretory component liberation by Acinetobacter baumannii (Western blot); type: cell-based; settings: for inhibition of SIgA reduction and SC liberation: 2 hours after incubation
Procedure: Acinetobacter baumannii was incubated with 50 μg/mL SIgA to examine breakdown of the immunoglobulin. Breakdown of SIgA by A. baumannii was observed by liberation of secretory component from dimeric IgA. Goat anti-human secretory component (free and bound) antibody was used to monitor this occurrence though Western blot. A mixture of A. baumannii strain Ci79 was prepared in three concentrations −10^7, 10^6, and 10^5 CFU/mL—to determine whether SIgA breakdown was dose dependent with respect to bacterial concentration FIG. 1A. […] Next, two competitive inhibitors of reductase enzymes targeting the thioredoxin fold (-C-X-X-C-) motif typically found in thiol-reductase enzymes (thioredoxin, glutathione, thioredoxin reductase, etc) were identified. The first, dithionitrobenzoic acid (Ellman's reagent) is often used as a colorimetric substrate to monitor thioredoxin activity as it produces a bright yellow color upon cleavage of the disulfide bond within the molecule. The second is PX-12. […] (Error bars represent ±SEM in all graphs; statistical differences determined by ANOVA with Dunnett correction; * significance p<0.01; ** p<0.001).

[2] = cited from earlier work
A. baumannii strain Ci79 = assay: Bacterial adherence to mouse intestinal sections; type: cell-based, Acinetobacter baumannii
Procedure: Intestinal sections were cut down one side to expose the inner lumen of the intestine and individually placed in suspensions of A. baumannii strain Ci79 (10^7 CFU/mL). The sections were incubated in this mixture for 30 minutes, washed twice in 250 volumes of sterile PBS and soaked in 500 volumes of PBS (volume of section ˜50-100 μL) for five minutes. The remaining bound bacteria were enumerated through homogenization of each section into single cell suspensions in 10 mL sterile PBS followed by dilution plating.

Compound	bacterial pellet size ([1]; 500 μg/mL)	MIC ([1]; Acinetobacter baumannii) [µg/mL]	bactericidal effect ([1]; at 31.25 μg/mL)	bactericidal activity (low MIC combined with low MBC) ([1]; repeat MIC to CLSI standards, ~5×10^5 CFU/mL, 64 to 0.5 μg/mL)	time after which inhibition is overcome by the bacteria (Acinetobacter baumannii)	inhibition of SIgA reduction and SC liberation (Acinetobacter baumannii; 15 μg/mL)	SIgA breakdown by Acinetobacter baumannii (Acinetobacter baumannii; 18 μg/mL, up to 2 hours following treatment)	concentration reported well tolerated by mice [2] [μg/mouse]	bacterial adherence to intestinal sections (A. baumannii strain Ci79; 18 μg/mL, sections from WT C57BL/6 mice)	reduction of bacterial attachment (A. baumannii strain Ci79; WT intestinal sections as 100% control, Ci79 10^7 CFU/mL, 30 minutes) [%]	SIgA breakdown by Acinetobacter baumannii after addition of inhibitor (Acinetobacter baumannii)	inhibition of SIgA reduction and SC liberation (Acinetobacter baumannii; 1 mM)	inhibition of SIgA reduction at 24 hours (Acinetobacter baumannii; 24 hours)
CCC(C)SSc1ncc[nH]1 (stereo not shown) [PX-12, 1-methylpropyl 2-imidazolyl disulfide]	visible decrease in bacterial pellet size	31.2 (≈ 166 µM)	bactericidal	bactericidal activity	about 12 hours	completely ablated	significantly reduced	~500	significantly inhibits	~40	–	–	–
O=C(O)c1cc(SSc2ccc([N+](=O)[O-])c(C(=O)O)c2)ccc1[N+](=O)[O-] [Ellman's reagent, dithionitrobenzoic acid]	–	–	–	–	–	–	–	–	–	–	significantly reduced	completely ablated	inhibition was still evident
